In publication doi:10.1101/2020.02.18.955294v1 (biorxiv, 2020) one finds Kd data, which are given here for one compound.

In the assay the target is NC1 (DGCR8 dimer) (Homo sapiens, UniProt Q8WYQ5, P351A). Briefly: biochemical.
Chain of NC1 (DGCR8 dimer) (Q8WYQ5 276-751 P351A): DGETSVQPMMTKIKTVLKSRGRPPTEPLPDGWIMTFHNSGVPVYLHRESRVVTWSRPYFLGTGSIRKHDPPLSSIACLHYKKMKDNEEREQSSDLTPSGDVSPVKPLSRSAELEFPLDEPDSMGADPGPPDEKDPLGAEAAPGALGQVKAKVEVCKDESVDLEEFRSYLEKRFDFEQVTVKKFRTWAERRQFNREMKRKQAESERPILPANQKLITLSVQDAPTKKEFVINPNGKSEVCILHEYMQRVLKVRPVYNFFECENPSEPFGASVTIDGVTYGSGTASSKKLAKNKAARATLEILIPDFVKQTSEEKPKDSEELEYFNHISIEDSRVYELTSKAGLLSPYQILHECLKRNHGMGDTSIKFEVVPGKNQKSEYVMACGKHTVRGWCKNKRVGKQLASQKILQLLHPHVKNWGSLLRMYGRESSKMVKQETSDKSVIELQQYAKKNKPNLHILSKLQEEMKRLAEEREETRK

As to `C=CC1=C(C)C2=Cc3c(C=C)c(C)c4[n]3[Fe]([Cl])[n]3c(c(C)c(CCC(=O)O)c3=CC3=NC(=C4)C(C)=C3CCC(=O)O)=CC1=N2` [Fe(III) heme], the Kd (commonly a measure of binding affinity in units of concentration) was roughly 5 pM.
